Where a SMILES comes first, the peptide text is derived from it.
Tests used:
Experiment in all cases: microbe, parasite or virus in culture
E. coli LEC001 = assay type: cell-based, Escherichia coli; settings: E. coli LEC001 (R)
Outline: (§1)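 Peptides 128→2 μg/mL, 2-fold series; inoculum ~5 × 10^5 CFU/mL from overnight culture (OD600 0.01, mixed 1:1). MHB non-cation-adjusted for bacteria, RPMI 1640 + 2% glucose for fungi. 37 °C, 20 h, OD600. MIC50/MIC90 at 50%/90% inhibition; n ≥ 3.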

E. coli NCTC 12923 = assay type: cell-based, Escherichia coli; settings: E. coli NCTC 12923 (S)
Outline: as §1

P. aeruginosa NCTC 13437 = assay type: cell-based, Pseudomonas aeruginosa; settings: P. aeruginosa NCTC 13437 (R)
Outline: as §1

A. baumannii ATCC 17978 = assay type: cell-based, Acinetobacter baumannii; settings: A. baumannii ATCC 17978 (S)
Outline: as §1

A. baumannii AYE = assay type: cell-based, Acinetobacter baumannii; settings: A. baumannii AYE (R)
Outline: as §1

K. pneumoniae M6 = assay type: cell-based, Klebsiella pneumoniae; settings: K. pneumoniae M6 (S)
Outline: as §1

K. pneumoniae NCTC 13368 = assay type: cell-based, Klebsiella pneumoniae; settings: K. pneumoniae NCTC 13368 (R)
Outline: as §1

S. aureus (MRSA) 1199B = assay type: cell-based, Staphylococcus aureus; settings: S. aureus (MRSA) 1199B (R)
Outline: as §1

[1] = test system: S. aureus (MRSA) NCTC 13616; assay type: cell-based, Staphylococcus aureus; settings: S. aureus (MRSA) NCTC 13616 (R)
Outline: as §1

S. aureus (MRSA) USA300 = assay type: cell-based, Staphylococcus aureus; settings: S. aureus (MRSA) USA300 (R)
Outline: as §1

[2] = test system: S. aureus (MSSA) ATCC 9144; assay type: cell-based, Staphylococcus aureus; settings: S. aureus (MSSA) ATCC 9144 (S)
Outline: as §1

C. auris TDG 1912 = assay type: cell-based, Candida auris; settings: C. auris TDG 1912
Outline: as §1

C. albicans NCPF 3281 = assay type: cell-based; settings: C. albicans NCPF 3281
Outline: as §1

C. glabrata NCPF 8018 = assay type: cell-based; settings: C. glabrata NCPF 8018
Outline: as §1

C. krusei NCPF 3876 = assay type: cell-based; settings: C. krusei NCPF 3876
Outline: as §1

[3] = test system: C. parapsilosis NCPF 3209; assay type: cell-based; settings: C. parapsilosis NCPF 3209
Outline: as §1

[4] = MHB, 37 °C, 20 h, OD600, min. three biological repeats
[5] = MHB, ~5×10^5 CFU/mL, 37 °C, 20 h, OD600, min. three biological repeats
[6] = 50% growth inhibition, RPMI 1640 + 2% glucose, 37 °C, 20 h, OD600
[7] = 90% growth inhibition, RPMI 1640 + 2% glucose, 37 °C, 20 h, OD600
[8] = 50% growth inhibition, RPMI 1640 + 2% glucose, 37 °C, 20 h
[9] = 90% growth inhibition, RPMI 1640 + 2% glucose, 37 °C, 20 h

CC[C@H](C)[C@H](NC(=O)CNC(=O)[C@@H](N)CCCNC(=N)N)C(=O)N[C@@H](CCCNC(=N)N)C(=O)NCC(=O)N[C@@H](Cc1ccc(O)cc1)C(=O)N[C@@H](CCCCN)C(=O)NCC(=O)NCC(=O)N[C@@H](Cc1ccc(O)cc1)C(=O)N[C@@H](CS)C(=O)N[C@H](C(=O)NCC(=O)N[C@@H](CCCNC(=N)N)C(=O)N[C@@H](Cc1ccccc1)C(=O)N[C@@H](CCCCN)C(=O)N[C@@H](CCC(N)=O)C(=O)N[C@H](C(=O)N[C@@H](CS)C(=O)N[C@@H](CCCCN)C(=O)N[C@@H](CS)C(=O)N[C@@H](Cc1ccc(O)cc1)C(=O)O)[C@@H](C)O)[C@@H](C)O [OmDefB] (H-RGIRGYKGGYCTGRFKQTCKCY-OH; N-terminus and C-terminus assumed)
> 49.9 µM: Modal MIC (E. coli LEC001; shown in µM) | Modal MIC (E. coli NCTC 12923; shown in µM) | Modal MIC (P. aeruginosa NCTC 13437; shown in µM) | Modal MIC (A. baumannii ATCC 17978; shown in µM) | Modal MIC (A. baumannii AYE; shown in µM) | Modal MIC (K. pneumoniae M6; shown in µM) | Modal MIC (K. pneumoniae NCTC 13368; shown in µM) | Modal MIC (S. aureus (MRSA) 1199B; shown in µM) | Modal MIC ([1]; shown in µM) | Modal MIC (S. aureus (MRSA) USA300; shown in µM) | Modal MIC ([2]; shown in µM) | Modal MIC50 (C. auris TDG 1912; shown in µM) | Modal MIC90 (C. auris TDG 1912; shown in µM) | Modal MIC50 (C. albicans NCPF 3281; shown in µM) | Modal MIC90 (C. albicans NCPF 3281; shown in µM) | Modal MIC50 (C. glabrata NCPF 8018; shown in µM) | Modal MIC90 (C. glabrata NCPF 8018; shown in µM) | Modal MIC50 (C. krusei NCPF 3876; shown in µM) | Modal MIC90 (C. krusei NCPF 3876; shown in µM) | Modal MIC50 ([3]; shown in µM) | Modal MIC90 ([3]; shown in µM)
> 128 µg/mL: Modal MIC (E. coli LEC001; [4]) | Modal MIC (E. coli NCTC 12923; [5]) | Modal MIC (P. aeruginosa NCTC 13437; [4]) | Modal MIC (A. baumannii ATCC 17978; [4]) | Modal MIC (A. baumannii AYE; [4]) | Modal MIC (K. pneumoniae M6; [4]) | Modal MIC (K. pneumoniae NCTC 13368; [4]) | Modal MIC (S. aureus (MRSA) 1199B; [4]) | Modal MIC [1, 4] | Modal MIC (S. aureus (MRSA) USA300; [4]) | Modal MIC [2, 4] | Modal MIC50 (C. auris TDG 1912; [6]) | Modal MIC90 (C. auris TDG 1912; [7]) | Modal MIC50 (C. albicans NCPF 3281; [8]) | Modal MIC90 (C. albicans NCPF 3281; [9]) | Modal MIC50 (C. glabrata NCPF 8018; [8]) | Modal MIC90 (C. glabrata NCPF 8018; [9]) | Modal MIC50 (C. krusei NCPF 3876; [8]) | Modal MIC90 (C. krusei NCPF 3876; [9]) | Modal MIC50 [3, 8] | Modal MIC90 [3, 9]

CC(C)C[C@H](NC(=O)[C@H](CCCCN)NC(=O)[C@H](CO)NC(=O)[C@H](CCCCN)NC(=O)[C@@H](N)Cc1c[nH]c2ccccc12)C(=O)N[C@@H](C)C(=O)N[C@@H](CCCCN)C(=O)N[C@@H](CCCCN)C(N)=O [PS-PB-8a] (H-WKSKLAKK-NH2)
> 127.2 µM: Modal MIC (E. coli LEC001; shown in µM) | Modal MIC (E. coli NCTC 12923; shown in µM) | Modal MIC (P. aeruginosa NCTC 13437; shown in µM) | Modal MIC (A. baumannii ATCC 17978; shown in µM) | Modal MIC (A. baumannii AYE; shown in µM) | Modal MIC (K. pneumoniae M6; shown in µM) | Modal MIC (K. pneumoniae NCTC 13368; shown in µM) | Modal MIC (S. aureus (MRSA) 1199B; shown in µM) | Modal MIC ([1]; shown in µM) | Modal MIC (S. aureus (MRSA) USA300; shown in µM) | Modal MIC ([2]; shown in µM) | Modal MIC50 (C. auris TDG 1912; shown in µM) | Modal MIC90 (C. auris TDG 1912; shown in µM) | Modal MIC50 (C. albicans NCPF 3281; shown in µM) | Modal MIC90 (C. albicans NCPF 3281; shown in µM) | Modal MIC50 (C. glabrata NCPF 8018; shown in µM) | Modal MIC90 (C. glabrata NCPF 8018; shown in µM) | Modal MIC50 (C. krusei NCPF 3876; shown in µM) | Modal MIC90 (C. krusei NCPF 3876; shown in µM) | Modal MIC50 ([3]; shown in µM) | Modal MIC90 ([3]; shown in µM)
> 128 µg/mL: Modal MIC (E. coli LEC001; [4]) | Modal MIC (E. coli NCTC 12923; [5]) | Modal MIC (P. aeruginosa NCTC 13437; [4]) | Modal MIC (A. baumannii ATCC 17978; [4]) | Modal MIC (A. baumannii AYE; [4]) | Modal MIC (K. pneumoniae M6; [4]) | Modal MIC (K. pneumoniae NCTC 13368; [4]) | Modal MIC (S. aureus (MRSA) 1199B; [4]) | Modal MIC [1, 4] | Modal MIC (S. aureus (MRSA) USA300; [4]) | Modal MIC [2, 4] | Modal MIC50 (C. auris TDG 1912; [6]) | Modal MIC90 (C. auris TDG 1912; [7]) | Modal MIC50 (C. albicans NCPF 3281; [8]) | Modal MIC90 (C. albicans NCPF 3281; [9]) | Modal MIC50 (C. glabrata NCPF 8018; [8]) | Modal MIC90 (C. glabrata NCPF 8018; [9]) | Modal MIC50 (C. krusei NCPF 3876; [8]) | Modal MIC90 (C. krusei NCPF 3876; [9]) | Modal MIC50 [3, 8] | Modal MIC90 [3, 9]

Reference: PMC11191095, “QSAR Reveals Decreased Lipophilicity of Polar Residues Determines the Selectivity of Antimicrobial Peptide Activity” (ACS Omega, 2024)
